According to US6448239B1, “Peroxynitrite decomposition catalysts and methods of use thereof” (Trustees of Princeton University, priority 1999, dated 2002):

Tests used:
plasmid pBR322 = experiment: Cleavage of plasmid DNA with manganese pyridyl porphyrins, agarose gel; settings: 1 mM Mn porphyrin, 50 μg/mL plasmid, 10 mM or 25 mM oxone, 5 min
Text: Three forms of plasmid DNA are expected when Mn porphyrins interact with and cleave DNA, and they can be easily separated on an agarose gel. Uncleaved, supercoiled plasmid (Form I) will show the greatest mobility. In the event of a nick in the DNA, the supercoils will relax, and the open circular form of the plasmnid (Form II) will appear. Further oxidation will cleave the second strand of DNA as well, and leads to a linear form (Form III.) The relative electrophoretic mobilities are as follows: I>III>II.
Two concentrations of oxidant were used: 10 mM and 25 mM. All experiments were performed in 40 mM tris buffer+100 mM NaCl. […] Before reaction, porphyrin was allowed to incubate with plasmid for 30 min.
A typical reaction was performed as follows: to a solution of 1 mM manganese porphyrin and 50 μg/mL plasmid in buffer was added enough oxone to make a final concentration of 10 mM or 25 mM. (Volume of the entire reaction was 20 μL.) The reaction mixture was vortexed, then allowed to react for 5 min. HEPES buffer (100 mM) was added to stop the reaction.
Each sample was electrophoresed on a 1% agarose slab horizontal gel at 90V for 1 h at 24° C. in 40 mM tris-acetate (TAE) and 1 mM ETDA buffer. The agarose gel contained ethidium bromide (1 μg/mL) so that the lanes could be visualized by UV-vis, and the finished gel was photographed under UV illumination. Lanes 1-4 were run at 10 mM oxone, and lanes 5-8 were run at 25 mM oxone. The control lanes, C1 and C2, contained 10 mM and 25 mM oxone, respectively, but no porphyrin. […] The lane assignments include the following: lane 1: Mn 4-T(CX)PyP, lane 2: Mn 2-T(CX)PyP; lane 3, Mn 2-T(PEG3)PyP; lane 4: Mn 4-TMPyP; lane C1: plasmid+10 mM oxone; lane C2: Plasmid+25 mM oxone

calf thymus DNA (CT-DNA) = experiment: Calf thymus-DNA titration (UV-visible spectrum); type: binding
Method: A 5 μM solution of 4-T(CX)PyP was prepared in 10 mM tris buffer+1 mM EDTA (pH=8.0). To 2 mL of this solution in a quartz cuvette, 1 μL aliquots of a 1.89 mM solution of calf thymus DNA (CT-DNA) in 10 mM tris+1 mM EDTA were added. The concentration of CT-DNA was determined by UV-visible spectrum. After each addition, the cuvette was vortexed to ensure good mixing, and the UV-visible spectrum was recorded. […] Several intermediate spectra were omitted for clarity.
The porphyrin 2-T(CX)PyP was titrated in an analogous way to 4-T(CX)PyP, as described above. […] Presumably, the ortho carboxamide groups provide sufficient steric bulk to prevent association of the positively-charged pyridyl groups with the negatively-charged sugar phosphate backbone. Even when CT-DNA was added in large excess to the solution of porphyrin, a redshift of only […] was observed.

Substance: Mn(III) 2-tetrakis(carboxamide)pyridyl porphyrin [Mn 2-T(CX)PyP]
- appearance of linear form of DNA (Form III) (plasmid pBR322): does not appear at all

Substance: Mn(III) 2-tetrakis(triethylene glycol monomethyl ether)pyridyl porphyrin [Mn 2-T(PEG3)PyP]
- appearance of linear form of DNA (Form III) (plasmid pBR322): does not appear at all

Substance: Mn(III) 4-tetrakis(carboxamide)pyridyl porphyrin [Mn 4-T(CX)PyP]
- degree of plasmid cleavage (plasmid pBR322): greatest degree of plasmid cleavage

Substance: 4-Tetrakis(carboxamide)pyridyl Porphyrin [4-T(CX)PyP]
- redshift of Soret band (Δλmax) (calf thymus DNA (CT-DNA); 5 μM porphyrin, 10 mM tris + 1 mM EDTA pH=8.0): 12 nm
- binding constant to DNA (calf thymus DNA (CT-DNA); calculated from the titration): 7.99×10^6
- association with DNA (in words) (calf thymus DNA (CT-DNA); from change in Soret band): both porphyrin intercalation into DNA and outside stacking of porphyrin along the DNA backbone
